Measured values reported in patent US9650389B2, “8-oxoprotoberberine derivative or pharmaceutically acceptable salt thereof, preparation method therefor and pharmaceutical composition for preventing or treating diseases associated with activity of NFAT5, containing same as active ingredient” (Korea Research Institute of Chemical Technology, priority 2013, dated 2017).

How the values were obtained:
[1] = Cytotoxicity test (WST-8), CHO-K1; assay type: cell-based; details: Chinese hamster, CHO-K1 ovary cells; CHO-K1, 24 hours
Method: To investigate the cytotoxicity of the derivative of the present invention, 5 kinds of cell lines (VERO: African green monkey kidney cell line, HFL-1: human embryonic lung cell line, L929: NCTC clone 929, mouse fibroblast cell line, NIH 3T3: mouse embryonic fibroblast cell line, and CHO-K1: Chinese hamster ovary cell line) were distributed in a 96-well plate at the density of 1×10^4 cells/well, which were treated with the compound of the present invention for 24 hours. The water-soluble tetrazolium salt WST-8 was added thereto. The orange colored formazan dye degraded by dehydrogenase in the live cells was read, followed by nonlinear regression to determine 50% growth inhibition concentration.

NFATc = experiment: NFAT (NFATc) transcriptional activity, THP1-XBlue-MD2-CD14 cells, SEAP; assay type: cell-based; details: LPS 1 μg/ml, 24 hours, FIG. 2B
Method: To evaluate the transcriptional activity of NFAT, THP1-XBlue-MD2-CD14 cells were cultured in 10% FBS-RPMI (supplemented with 200 μg/ml of Zeocin and 250 μg/ml of G418). First, the cells were distributed in a 96-well plate at the density of 2×10^4 cells/well, followed by culture. 1 μg/ml of LPS and the compound of the invention were added thereto, followed by culture for 24 hours. 20 μl of the supernatant was added with 180 μl of secreted embryonic alkaline phosphatase (SEAP) detection medium, followed by culture for 2 hours. Then, OD655 was measured.

IL-6 and TNF-α = experiment: Inflammatory cytokine expression in LPS-treated human mononuclear cells (PBMC), real-time PCR; assay type: cell-based; details: LPS 1 μg/ml, compound 1 μg/ml, 6 hours, FIG. 11
Method: Particularly, PBMC separated from healthy human blood was treated with LPS (1 μg/ml). The cells were treated with the compound of the present invention at the concentration of 1 μg/ml, followed by culture for 6 hours to investigate whether or not the induced inflammatory cytokine secretion was inhibited by the compound. RNA was separated from the cells, from which the transcription levels of IL-6 and TNF-α were quantified by real-time PCR. The results are shown in FIG. 11 (NC: negative control, PC: positive control).

[2] = test system: inflammatory cytokines (TNF-α, IL-6); experiment: Inflammatory cytokines in LPS-stimulated spleen cells of collagen-induced arthritis mice (ELISA); assay type: in vivo; details: 15 and 60 mg/kg; arthritis mouse spleen cells, LPS 12 hours; FIG. 8
Method: Particularly, the mice having arthritis induced by collagen in Example 10 were used herein. Cells were extracted from the mouse spleen, which were cultured in a 12-well plate and stabilized. Cells were stimulated with LPS for 12 hours and the expressions of inflammatory cytokines (TNF-α, IL-6) were measured by ELISA.

[3] = Metabolic stability in human liver microsomes; assay type: in vitro ADME; details: human liver microsome fractions, 30 minutes
Method: Particularly, each compound was added to rat and human liver microsome fractions, followed by culture for 30 minutes. Each compound was administered via intravenous injection (iv) and oral-administration (po) to rat at the concentration of 5 mg/kg, followed by making pharmacokinetic profiles.

NFAT5 [4] = experiment: NFAT5 transcription and nuclear localization in LPS-stimulated RAW264.7 cells; assay type: cell-based, mouse; details: FIG. 4
Method: Particularly, RAW264.7 cells were distributed in a 12-well plate at the density of 1.5×10^5 cells/well, followed by culture in 10% FBS-RPMI 1640 medium. The cells were stabilized for a day. The compound of Example 1 was treated thereto at the concentration of 1 μM for 1 hour, and then the cells were stimulated with LPS for 12 hours. 12 hours later, mRNA was extracted from the cells, and cDNA was synthesized therefrom. PCR (real-time PCR) was performed to measure the expression level of NFAT5 mRNA. The migration of the transcription factor NFAT5 from the cytoplasm to the nucleus was investigated. Particularly, RAW264.7 cells were distributed in a 6-well plate at the density of 6×10^5 cells/well, followed by culture in 10% FBS-RPMI 1640 medium. The cells were pre-treated with the compound 6 (1 μM) for 1 hour, and treated with LPS (1 μg/ml) for 24 hours. Cytoplasm and nucleus proteins were separated from the stimulated cells and the levels of NFAT5 and p65 protein (NF-kB subunit) were measured.

iNOS = experiment: Inhibition of LPS-induced iNOS induction in Raw264.7 cells (Griess reagent); assay type: cell-based; details: Mus musculus, Raw264.7, LPS 100 ng/ml, 24 hours, read-out: Inhibition rate of iNOS induction (%)
Method: To investigate whether or not the derivative of the present invention could inhibit iNOS inducement, Raw264.7 cells (mouse macrophages) were distributed in a 384-well plate at the density of 3×10^4 cells/well. The cells were treated with LPS at the concentration of 100 ng/ml, followed by culture at 37° C. for 24 hours. The concentration of […] increased in the medium was measured by using Griess reagent. The inhibition rate was calculated by mathematical formula based on the detected signals. The results are shown in Table 2. % inhibition=(mean value of sample−mean value of negative control)/(mean value of positive control −mean value of negative control)×100 [Mathematical Formula 1]

NFAT5 [5] = target: T1, NFAT5 (Mus musculus, UniProt Q9WV30); experiment: NFAT5 reporter screening (GFP, HCS) in LPS-treated Raw264.7 cells; assay type: cell-based; details: for Inhibition rate of NFAT5 transcription (%): Raw264.7 reporter, LPS 1 μg/ml, 48 hours
T1 construct: endogenous in cells; host or cells: RAW264.7
T1 sequence (Q9WV30 whole entry): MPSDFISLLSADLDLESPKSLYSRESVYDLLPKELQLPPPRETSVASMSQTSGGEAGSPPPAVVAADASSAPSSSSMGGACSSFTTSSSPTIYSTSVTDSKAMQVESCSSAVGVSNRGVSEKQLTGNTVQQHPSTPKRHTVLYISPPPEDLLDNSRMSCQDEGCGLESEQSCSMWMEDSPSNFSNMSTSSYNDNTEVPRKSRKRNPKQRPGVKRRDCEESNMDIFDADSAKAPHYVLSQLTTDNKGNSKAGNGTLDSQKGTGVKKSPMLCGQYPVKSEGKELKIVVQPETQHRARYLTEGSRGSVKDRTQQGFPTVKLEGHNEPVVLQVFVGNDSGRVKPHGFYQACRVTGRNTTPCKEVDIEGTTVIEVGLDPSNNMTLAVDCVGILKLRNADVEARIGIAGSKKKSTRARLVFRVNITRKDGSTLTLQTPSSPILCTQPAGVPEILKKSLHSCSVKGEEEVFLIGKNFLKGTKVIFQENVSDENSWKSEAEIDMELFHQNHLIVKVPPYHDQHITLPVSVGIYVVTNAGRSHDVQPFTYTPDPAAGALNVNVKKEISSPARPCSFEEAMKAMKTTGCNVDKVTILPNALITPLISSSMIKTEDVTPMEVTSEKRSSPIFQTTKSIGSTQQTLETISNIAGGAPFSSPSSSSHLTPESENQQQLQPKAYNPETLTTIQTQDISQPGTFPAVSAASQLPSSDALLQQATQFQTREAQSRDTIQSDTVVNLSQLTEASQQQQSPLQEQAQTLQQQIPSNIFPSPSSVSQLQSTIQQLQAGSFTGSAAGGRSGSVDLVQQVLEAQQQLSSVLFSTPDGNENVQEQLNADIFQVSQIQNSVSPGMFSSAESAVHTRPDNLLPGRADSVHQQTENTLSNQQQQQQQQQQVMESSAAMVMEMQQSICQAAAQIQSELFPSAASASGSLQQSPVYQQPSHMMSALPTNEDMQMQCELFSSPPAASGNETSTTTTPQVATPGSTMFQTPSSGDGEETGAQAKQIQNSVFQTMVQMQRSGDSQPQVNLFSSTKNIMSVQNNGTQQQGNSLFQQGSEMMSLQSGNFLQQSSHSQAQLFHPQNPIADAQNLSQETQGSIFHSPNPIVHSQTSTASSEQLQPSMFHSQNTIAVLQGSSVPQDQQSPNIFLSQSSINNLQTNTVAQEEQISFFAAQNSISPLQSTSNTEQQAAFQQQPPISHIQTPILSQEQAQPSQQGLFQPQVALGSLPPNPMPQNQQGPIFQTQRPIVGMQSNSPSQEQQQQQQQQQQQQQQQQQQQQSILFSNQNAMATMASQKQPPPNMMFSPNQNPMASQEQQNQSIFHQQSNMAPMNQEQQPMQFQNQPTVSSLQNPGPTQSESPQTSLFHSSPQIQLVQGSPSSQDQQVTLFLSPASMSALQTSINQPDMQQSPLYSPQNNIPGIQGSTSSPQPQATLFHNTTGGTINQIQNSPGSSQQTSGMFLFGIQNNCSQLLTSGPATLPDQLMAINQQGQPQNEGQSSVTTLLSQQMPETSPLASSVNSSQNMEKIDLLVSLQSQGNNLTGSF
Method: To investigate whether or not the derivative of the present invention could inhibit the transcriptional activity of NFAT5, NFAT5 reporter screening was performed. A plasmid vector was constructed by eliminating CMV promoter sequence from the backbone and inserting NFAT5 binding site sequence ([…]) instead. Raw264.7 cells transfected with the vector were cultured in 10% FBS-PRMI (supplemented with 500 μg/ml G418). The cells were distributed in a 96-well plate at the density of 3×10^3 cells/well, followed by further culture for one more day. The cells were treated with LPS at the concentration of 1 μg/ml for 48 hours. Then, the cells were fixed and the expression level of GFP was measured by HCS fluorescence image (Thermo, ArrayScan^VTI).

remaining compound, Human (%) [3]: 68.2 ± 6.1%
Inhibition rate of NFAT5 transcription (%) (NFAT5 [5]; 1 μM): 11.2%
Inhibition rate of NFAT5 transcription (%) (NFAT5 [5]; 10 μM): 81.2%
Structure (SMILES): COc1ccc2c(Cc3ccccc3F)c3n(c(=O)c2c1OC)CCc1cc2c(cc1-3)OCO2 [Example 1, 13-(2-fluorobenzyl)-9,10-dimethoxy-5H-[1,3]dioxolo[4,5-g]isoquinolino[3,2-a]isoquinoline-8(6H)-one]
GI50 at 24 h [1]: 12.1 µM
inhibition of NFAT promoter / transcriptional activity (in words) (NFATc): slightly
expression of cytokines (IL-6, TNF-α transcription levels) (IL-6 and TNF-α): inhibit the expression of cytokines
expression of IL-6 [2]: reduced
expression of TNF-α [2]: reduced
increase of NFAT5 expression caused by LPS (from the phase of transcript) (NFAT5 [4]; 1 μM for 1 hour, LPS 12 hours, real-time PCR): suppressed
NFAT5 protein level increased by LPS (cytoplasm/nucleus) (NFAT5 [4]; 1 μM pre-treatment 1 hour, LPS 1 μg/ml 24 hours): reduced
inhibition at 1 µM (iNOS; 1 μM): 91%
inhibition at 10 µM (iNOS; 10 μM): 134%
inhibiting NFAT5 activity (in words) (NFAT5 [5]; Table 3 and FIG. 1): remarkably excellent in inhibiting NFAT5 activity
